In paper PMC8835733, “PaOctβ2R: Identification and Functional Characterization of an Octopamine Receptor Activating Adenylyl Cyclase Activity in the American Cockroach Periplaneta americana” (International Journal of Molecular Sciences, 2022):
“And” between values parts separate entries of the source, which are not always exact repeats. Identical values can stand only once. Like-named read-outs stand apart in the source and are kept apart here.

Key:
[1] = tested on: PaOctβ2R-HA; test: Antagonist inhibition of octopamine-activated PaOctβ2R-HA (cAMP via CNG channel / Fluo-4); assay type: cell-based, Periplaneta americana; settings: 1 × 10^−9 M octopamine; for Maximal Inhibition of octopamine-activated PaOctβ2R-HA activity: 1 × 10^−4 M IBMX
Method: (§1) The reduction of cellular cAMP production, monitored as a decrease in Fluo-4 fluorescence (see Section 4.9), was quantified and normalized to the value obtained without adding antagonists (=100%). Normalized data were used to construct inhibitor concentration-response curves.
(§2) Ligand concentrations that led to half-maximal inhibition of PaOctβ2R-HA (IC50) were determined from the concentration-response curves.
(§3) A stably transfected cell line was established to examine PaOctβ2R-HA receptor activity by Ca^2+ imaging. Control measurements were performed in the parental (flpTM) cell line. Changes in [cAMP]i were registered indirectly via co-expressed CNG channels that are opened by cAMP and cause an influx of extracellular Ca^2+ [18, 26, 91]. Changes in [Ca^2+]i were monitored with the Ca^2+-sensitive fluorescent dye Fluo-4. Cells were grown in 96-well dishes to a density of approximately 2 × 10^4 cells per well and were loaded at room temperature with Fluo-4 AM as described previously. After 90 min, the loading solution was substituted for dye-free extracellular solution (ECS; 120 mM NaCl, 5 mM KCl, 2 mM MgCl2, 2 mM CaCl2, 10 mM HEPES, and 10 mM glucose, pH 7.4 (NaOH)) containing 100 µM 3-isobutyl-1-methylxanthine (IBMX; Sigma-Aldrich/Merck, Darmstadt, Germany) as an inhibitor of cell-endogenous phosphodiesterases. The plate was transferred into a fluorescence reader (FLUOstar Omega, BMG Labtech, Ortenberg, Germany) to monitor Fluo-4 fluorescence. The excitation wavelength was 485 nm. Fluorescence emission was detected at 520 nm. Concentration series of various biogenic amines and synthetic receptor ligands were added once Fluo-4 fluorescence had reached a stable value in each well. The changes in Fluo-4 fluorescence were recorded automatically. Concentration-response curves were established from at least three independent experiments. Data points were derived from four-fold or eightfold determination.

[2] = tested on: PaOctβ2R-HA; test: Antagonist inhibition of tyramine-activated PaOctβ2R-HA (cAMP via CNG channel / Fluo-4); assay type: cell-based, Periplaneta americana; settings: 1 × 10^−7 M tyramine; for Maximal Inhibition of tyramine-activated PaOctβ2R-HA activity: 1 × 10^−4 M IBMX
Method: as §1, §2, §3

[3] = tested on: PaOctβ2R-HA; test: Agonist-evoked cAMP production in PaOctβ2R-HA-expressing flpTM cells (CNG channel / Fluo-4 Ca2+ imaging); assay type: cell-based, Periplaneta americana; settings: for increase in [cAMP]i in PaOctβ2R-HA-expressing cells: biogenic amines at 0.1 and 1 µM; for increase in [cAMP]i in PaOctβ2R-HA-expressing cells / concentration at which the concentration-response curve saturated: 100 µM IBMX; for concentration at which the concentration-response curve saturated: flpTM + PaOctβ2R-HA cells
From the text: (§4) These insect receptors are preferentially activated by octopamine and to a certain extent by tyramine as well. In a first series of experiments, we thus examined the ability of different biogenic amines, i.e., octopamine, tyramine, dopamine, histamine, and serotonin, to evoke PaOctβ2R-HA-dependent cAMP production in receptor-expressing as well as in the parental (flpTM) cell line. Increasing [cAMP]i cause opening of the CNG channels and influx of extracellular Ca^2+ which was detected by the Ca^2+-sensitive dye FLUO-4.
(§5) In a next step, concentration series of octopamine and tyramine ranging from 10^−12 M to 10^−7 M for octopamine and 10^−11 M to 10^−6 M for tyramine were applied to the cell lines. The fluorescence signals were normalized to values obtained in flpTM + PaOctβ2R-HA cells with the highest ligand concentration (=100%) and used to calculate concentration response curves for the receptor (Figure 6; Table 1).
(§6) Cells were transfected with 10 µg of the pcPaOctβ2R-HA construct by a modified calcium phosphate method following a previously established protocol. Transfected cells were selected in the presence of the antibiotics G418 (1 mg/mL) and hygromycin (100 µg/mL).
as §3

[4] = target: (UniProt Z9G3U5DLY1); test: as above; assay type: cell-based, Periplaneta americana; settings: 100 µM IBMX
From the text: as §4, §5, §6, §3

[5] = tested on: flpTM cells; test: Control measurements in parental (non-transfected) flpTM cells (cAMP via CNG channel / Fluo-4); assay type: cell-based, human; settings: concentration series of octopamine or tyramine; 100 µM IBMX
From the text: as §4, with “FLUO-4. No stimulation of adenylyl cyclase activity was recorded in flpTM cells when incubated with 0.1 or 1 µM concentrations of biogenic amines (Figure 5A). […]” for “FLUO-4.”
A stably transfected cell line was established to examine PaOctβ2R-HA receptor activity by Ca^2+ imaging. […] Changes in [Ca^2+]i were monitored with the Ca^2+-sensitive fluorescent dye Fluo-4. […] The plate was transferred into a fluorescence reader (FLUOstar Omega, BMG Labtech, Ortenberg, Germany) to monitor Fluo-4 fluorescence. […] Fluorescence emission was detected at 520 nm. Concentration series of various biogenic amines and synthetic receptor ligands were added once Fluo-4 fluorescence had reached a stable value in each well. The changes in Fluo-4 fluorescence were recorded automatically. […]

[6] = target: (UniProt Z9G3U5DLY1); test: Antagonist inhibition of octopamine-activated PaOctβ2R-HA (cAMP via CNG channel / Fluo-4); assay type: cell-based, Periplaneta americana; settings: 1 × 10^−9 M octopamine, 1 × 10^−4 M IBMX
Method: as §1, §2, §3

[7] = target: (UniProt Z9G3U5DLY1); test: Antagonist inhibition of tyramine-activated PaOctβ2R-HA (cAMP via CNG channel / Fluo-4); assay type: cell-based, Periplaneta americana; settings: 1 × 10^−7 M tyramine, 1 × 10^−4 M IBMX
Method: as §1, §2, §3

[8] = mean of n = 5 experiments, flpTM + PaOctβ2R-HA cells, read-out: EC50, mean value for half-maximal stimulation of PaOctβ2R-HA
[9] = mean of n = 5 experiments, flpTM + PaOctβ2R-HA cells, read-out: pEC50 ± SD, half-maximal stimulation of PaOctβ2R-HA (converted)
[10] = single representative eight-fold determination, read-out: EC50, half maximal activation of PaOctβ2R-HA (representative experiment, Figure 6)
[11] = read-out: IC50, half-maximal inhibition of octopamine-activated PaOctβ2R-HA
[12] = read-out: pIC50 ± SD, octopamine-activated PaOctβ2R-HA (converted)
[13] = read-out: IC50, half-maximal inhibition of tyramine-activated PaOctβ2R-HA
[14] = read-out: pIC50 ± SD, tyramine-activated PaOctβ2R-HA (converted)

Compound: COc1ccc2[nH]cc(CCN)c2c1 [5-MT, 5-methoxytryptamine]
- effect on octopamine-stimulated PaOctβ2R-HA activity (in words) [1]: did not impair
- effect on tyramine-stimulated PaOctβ2R-HA activity (in words) [2]: did not impair

Compound: COC(=O)[C@@H]1[C@H]2C[C@H]3c4[nH]c5ccccc5c4CCN3C[C@@H]2CC[C@@H]1O [yohimbine]
- effect on octopamine-stimulated PaOctβ2R-HA activity (in words) [1]: did not impair
- effect on tyramine-stimulated PaOctβ2R-HA activity (in words) [2]: did not impair

Compound: NCC(O)c1ccc(O)cc1 (centres unmarked) [octopamine]
- increase in [cAMP]i in PaOctβ2R-HA-expressing cells [3]: showed increasing [cAMP]i
- concentration at which the concentration-response curve saturated [3]: ≥ 10^−9 M
- preference (selectivity) of PaOctβ2R-HA for octopamine over tyramine ([3]; octopamine vs tyramine potency): 100 fold and ~ 100 fold
- EC50 [4, 8]: 0.467 nM
- EC50 [4, 9]: 0.447 nM
- EC50 [4, 10]: 0.297 nM
- change in the fluorescence signal in non-transfected flpTM cells [5]: no change in the fluorescence signal was observed

Compound: NC1=NCC2c3ccccc3Cc3ccccc3N12 (centres unmarked) [epinastine]
- Maximal Inhibition of octopamine-activated PaOctβ2R-HA activity [1]: 100%
- IC50 [6, 11]: ~12 nM and 12 nM
- IC50 [6, 12]: 11.4 nM
- Maximal Inhibition of tyramine-activated PaOctβ2R-HA activity [2]: 100%
- IC50 [7, 13]: ~13 nM and 13 nM
- IC50 [7, 14]: 11.2 nM

Compound: NCCc1ccc(O)cc1 [tyramine]
- increase in [cAMP]i in PaOctβ2R-HA-expressing cells [3]: showed increasing [cAMP]i
- concentration at which the concentration-response curve saturated [3]: ≥ 10^−7 M
- EC50 [4, 8]: 43 nM
- EC50 [4, 9]: 40.7 nM
- EC50 [4, 10]: 36.8 nM
- change in the fluorescence signal in non-transfected flpTM cells [5]: no change in the fluorescence signal was observed

Compound: O=C(c1ccc(F)cc1)C1CCN(CCn2c(=O)[nH]c3ccccc3c2=O)CC1 [ketanserin]
- Maximal Inhibition of octopamine-activated PaOctβ2R-HA activity [1]: 80%
- Maximal Inhibition of octopamine-activated PaOctβ2R-HA activity ([1]; listed as Ketanserin): approximately 80%
- IC50 [6, 11]: 5120 nM
- IC50 [6, 12]: 5120 nM
- Maximal Inhibition of tyramine-activated PaOctβ2R-HA activity [2]: 50%
- IC50 [7, 13]: 1680 nM
- IC50 [7, 14]: 1710 nM

Compound: NCCc1c[nH]c2ccc(O)cc12 [serotonin, 5-hydroxytryptamine]
- increase in [cAMP]i in PaOctβ2R-HA-expressing cells [3]: Neither dopamine, histamine nor serotonin caused an increase in [cAMP]i

Compound: NCCc1c[nH]cn1 [histamine]
- increase in [cAMP]i in PaOctβ2R-HA-expressing cells [3]: Neither dopamine, histamine nor serotonin caused an increase in [cAMP]i

Compound: NCCc1ccc(O)c(O)c1 [dopamine]
- increase in [cAMP]i in PaOctβ2R-HA-expressing cells [3]: Neither dopamine, histamine nor serotonin caused an increase in [cAMP]i

Compound: Cc1ccc(N(CC2=NCCN2)c2cccc(O)c2)cc1 [phentolamine]
- Maximal Inhibition of octopamine-activated PaOctβ2R-HA activity [1]: 100%
- IC50 [6, 11]: 257 nM
- IC50 [6, 12]: 247 nM
- Maximal Inhibition of tyramine-activated PaOctβ2R-HA activity [2]: 100%
- IC50 [7, 13]: 256 nM
- IC50 [7, 14]: 255 nM

Compound: CCCN(CCC)C1CCc2cccc(O)c2C1 (centres unmarked) [8-OH-DPAT, 8-hydroxy-2-(dipropylamino)tetralin]
- effect on octopamine-stimulated PaOctβ2R-HA activity (in words) [1]: did not impair
- effect on tyramine-stimulated PaOctβ2R-HA activity (in words) [2]: did not impair
